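The compound was tested at five concentrations on cells cultured in 96-well plates, with a 48-hour exposure period. GI50: concentration for 50% inhibition of growth. TGI is the concentration that stops growth completely.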
Key:
Test in all cases: inhibition of tumour cell growth, NCI panel, 48 h
[1] = system: CAKI-1 renal
[2] = system: CCRF-CEM leukemia
[3] = system: LOX IMVI melanoma
[4] = system: M14 melanoma
[5] = system: NCI-H460 lung
[6] = system: NCI/ADR-RES ovarian
[7] = system: OVCAR-8 ovarian
[8] = system: RPMI-8226 leukemia
[9] = system: SK-MEL-2 melanoma
[10] = system: TK-10 renal

Compound | GI50 [1] [µM] | TGI [1] [µM] | GI50 [2] [µM] | TGI [2] [µM] | GI50 [3] [µM] | TGI [3] [µM] | GI50 [4] [µM] | TGI [4] [µM] | GI50 [5] [µM] | TGI [5] [µM] | GI50 [6] [µM] | TGI [6] [µM] | GI50 [7] [µM] | TGI [7] [µM] | GI50 [8] [µM] | TGI [8] [µM] | GI50 [9] [µM] | TGI [9] [µM] | GI50 [10] [µM] | TGI [10] [µM]
CCN(CC)CCCC(C)Nc1cnc(C(=O)Nc2ccc(Cl)c3cccnc23)cn1 (stereo not given) | 1.78 | 4.1 | 0.484 | 2.27 | 1.78 | 3.3 | 1.79 | 3.59 | 2.64 | 6.8 | 2.55 | 9.33 | 3.17 | 10 | 1.74 | 3.92 | 1.95 | 4.34 | 9.09 | 21.9
CC1=CC(=NC(=O)CBr)C=C/C1=N\S(=O)(=O)c1ccccc1 | 3.11 | 11.4 | 2.45 | 8.16 | 1.68 | 3.24 | 3.26 | 13.9 | 15.1 | 34 | 3.38 | 14 | 3.29 | 11.1 | 2.9 | 9.35 | 4.04 | 16 | 2.85 | 7.04
C/C=C(\C)C(=O)N[C@H]1CC[C@]2(C)C3CC[C@@]4(C)C(CC[C@@H]4C(C)N(C)C)C3CCC2[C@H]1OC(C)=O (stereo not given in full) | 2.11 | 4.86 | 1.97 | 6.19 | 1.42 | 2.78 | 1.85 | 3.69 | 0.923 | 2.26 | 3.11 | 12 | 3.38 | > 25.8 | 1.62 | 4.68 | 2.29 | 4.48 | 2.16 | 4.59
